The source made the active and inactive calls. No cut-off for these calls is given here.

The subject of data set [1] is RAW264.7. Nature of the data set: Cytoprotective activity against anthrax toxin lethal factor/protective antigen-induced cell death in mouse RAW264.7 cells assessed as cell viability at 10 uM by MTT reduction assay. Format: functional, cell-based. Background: Formazan colour is commonly taken as a measure of viable cells.
Data set [2] has as its system CHO. Nature of the data set: Cytoprotective activity against anthrax fusion toxin FP59-induced cell death in CHO cells assessed as cell viability by MTT reduction assay. Format: functional, cell-based. The conditions noted are these: Cricetulus griseus.
Data set [3] relates to CHO. Kind of data set: Cytoprotective activity against diphtheria toxin-induced cell death in CHO cells assessed as cell viability at 10 uM by MTT reduction assay. Format: functional. The following applies: Cricetulus griseus, read-out: Activity.
Data set [4] concerns the target Replicase polyprotein 1ab (Severe acute respiratory syndrome-related coronavirus, UniProt P0C6X7). Kind of data set: Inhibition of SARS Co-V 3CL protease.
Data set [5] deals with CHO. Nature of the data set: Cytoprotective activity against diphtheria toxin-induced cell death in CHO cells assessed as cell viability at 5 uM by MTT reduction assay. Format: functional. The conditions noted are these: Cricetulus griseus, read-out: Activity.
In data set [6] the test system is RAW264.7. Nature of the data set: Cytoprotective activity against anthrax toxin lethal factor-induced cell death in mouse RAW264.7 cells assessed as cell viability at 3 uM by MTT reduction assay. Format: functional, cell-based.
Data set [7] has as its system RAW264.7. Kind of data set: Cytoprotective activity against anthrax lethal toxin-induced cell death in mouse RAW264.7 cells assessed as cell viability at 2 uM preincubated for 45 mins with lethal toxin measured after 1 hr by MTT reduction assay. Format: functional, cell-based.
For data set [8], the system named is RAW264.7. Nature of the data set: Cytotoxicity against mouse RAW264.7 cells at 10 uM by MTT assay. The following applies: raw264.7, 10 µM. Format: cell-based.

With `Cc1ccnc(-n2sc3ccccc3c2=O)n1`, the outcome in the data set on RAW264.7 [1] was inactive.
On to `Cc1ccc2oc(=O)c3cnn(CC(=O)Nc4ccccc4N4CCN(C)CC4)c3c2c1`, for which the result with CHO [2] and with RAW264.7 [1] was Active. Besides, the viability at 10 µM with CHO [3] is 75%.
As to `N=C1Sc2ccccc2C2=NCCCN12`, the result in the data set with RAW264.7 [1] was inactive.
The term IC50 denotes the concentration needed to halve the response being measured. Higher therefore signals weaker potency in that assay. Take `O=C(Nc1ccc([N+](=O)[O-])cc1Cl)c1cc(Cl)ccc1O` [NICLOSAMIDE]: the result in the data set with CHO [2] and with RAW264.7 [1] was Active. The compound also registered an IC50 in data set [4] of 40 µM. The viability at 5 µM in the data set on CHO [5] is 100%.
As for `COc1cc2c(O)c3c(c(-c4ccc5c(c4)OCO5)c2cc1OC)C(=O)OC3` [DIPHYLLIN], the result in the data set with RAW264.7 [6], in the data set with CHO [2] and in the data set with RAW264.7 [7] was Active. In addition, the viability at 5 µM with CHO [5] was 100%.
In the case of `CN(C)CCCn1cc(C2=C(c3c[nH]c4ccccc34)C(=O)NC2=O)c2ccccc21` [GF-109203], the viability at 10 µM in the data set on CHO [3] amounted to 60%. The Activity entry with RAW264.7 [8] is “Toxic”.
